# Tests used:
# Assay type in all cases: in vivo, human
# [1] = tested on: healthy men and women playing video games; experiment: Stroop Color and Word Test during gaming; conditions: 200 mg daily
# Description: The effectiveness of study-products (paraxanthine and placebo) was assessed by measuring in-game performance, cognition during gaming (Stroop Test) and mood status during gaming (Profile of Mood States (POMS)). The Stroop Color and Word Test (SCWT) was administered after 0, 3, and 6 six weeks of supplementation to assess cognitive performance during gaming throughout the study protocol. The Stroop Test was completed pre-dose, after 60 minutes of gaming and immediately after completing 120 minutes of video gaming during all study visits. The SCWT is a neuropsychological test that follows the procedures of Stroop (Stroop 1935). Briefly, the SCWT (with congruency) was administered for five continuous minutes via an online software application. One of four words (red, yellow, green, blue) appeared at random, until a selection was made, then a new word appeared at random. Subjects selected the response which matches the color of the ink of the randomly selected word (not the color that the word described). The number of correct answers served as the basis of a total Stroop score.
# [2] = tested on: healthy subject; experiment: Arcade video game GALAGA, game score; conditions: 300 mg prior to playing GALAGA; one subject
# Excerpt: Each of the three game sessions were separated by a one-week washout period. In […], the player mans a lone […] bottom of the screen, which must prevent the […] forces from destroying all of mankind. The objective of each stage is to defeat all of the […] aliens, which will fly into formation from the top and sides of the screen.
# [3] = tested on: healthy men and women playing video games; experiment: Video game performance, Super Smash Brothers Ultimate; parameters: Damage Taken, Mean of visit / Damage Taken, Mean ± SD: unit not given here; conditions: 200 mg daily; for Damage Taken, Mean ± SD / Falls (Deaths), Mean ± SD / Hit Percentage, Mean ± SD / Damage Taken, Mean of visit / Falls (Deaths), Mean of visit / Hit Percentage, Mean of visit: n = 5; for Damage Taken, Mean of visit / Falls (Deaths), Mean of visit / Hit Percentage, Mean of visit: mean of 20-120 min; for Damage Taken, Δ Baseline / Falls (Deaths), Δ Baseline: versus baseline; for Damage Taken, Δ PLA / Falls (Deaths), Δ PLA: versus placebo
# Description: The effectiveness of study-products (paraxanthine and placebo) was assessed by measuring in-game performance, cognition during gaming (Stroop Test) and mood status during gaming (Profile of Mood States (POMS)). All study participants played the game Super Smash Brothers Ultimate (Nintendo, Release date: Dec. 7, 2018). Each study participant arrived, completed all necessary testing and began playing the game. Game consoles and controllers were available, but if participants wanted to bring their own controller, they were allowed to do so. The game was be set to the same level and strategy for each player. During each session, study participants played the game for 60 minutes and took a break to complete the Stroop Test and POMS. Participants then played the game for an additional 60 minutes before completing their third tests. […]
# [4] = gaming between 100 and 120 minutes of play
smiles,measurement,setting,value
"Cn1c(=O)[nH]c2ncn(C)c2c1=O [Paraxanthine, paraxanthine]",increase in cognitive performance (Stroop test score) compared to baseline,"[1]; 3 weeks, after one hour of gaming",39%
same,increase in cognitive performance (Stroop test score) compared to baseline,"[1]; 3 weeks, after two hours of gaming",89%
same,increase in cognitive performance (Stroop test score) compared to baseline,"[1]; 3 weeks, pre-gaming",25%
same,increase in cognitive performance (Stroop test score) compared to baseline,"[1]; 6 weeks, after one hour of gaming",89%
same,increase in cognitive performance (Stroop test score) compared to baseline,"[1]; 6 weeks, after two hours of gaming",119%
same,increase in cognitive performance (Stroop test score) compared to baseline,"[1]; 6 weeks, pre-gaming",25%
same,habituation,[1]; even after 6 weeks,No habituation was observed
same,average score over 5 games,[2],"118,702"
same,change of average score compared to placebo,[2],+79.4%
same,change of personal best compared to placebo,[2],+86.6%
same,personal best (high score) of the 5 games,[2],"161,070"
same,"Damage Taken, Mean ± SD","[3]; 3 weeks, 20 min",870.00 ± 301.09
same,"Falls (Deaths), Mean ± SD","[3]; 3 weeks, 20 min",5.75 ± 2.63
same,"Hit Percentage, Mean ± SD","[3]; 3 weeks, 20 min",37.75 ± 9.64
same,"Damage Taken, Mean ± SD","[3]; 3 weeks, 40 min",1103.00 ± 253.95
same,"Falls (Deaths), Mean ± SD","[3]; 3 weeks, 40 min",8 ± 3.67
same,"Hit Percentage, Mean ± SD","[3]; 3 weeks, 40 min",35.8 ± 8.93
same,"Damage Taken, Mean ± SD","[3]; 3 weeks, 60 min",987.25 ± 396.60
same,"Falls (Deaths), Mean ± SD","[3]; 3 weeks, 60 min",7 ± 3.83
same,"Hit Percentage, Mean ± SD","[3]; 3 weeks, 60 min",38 ± 5.72
same,"Damage Taken, Mean ± SD","[3]; 3 weeks, 80 min",1351.80 ± 341.08
same,"Falls (Deaths), Mean ± SD","[3]; 3 weeks, 80 min",9 ± 3.32
same,"Hit Percentage, Mean ± SD","[3]; 3 weeks, 80 min",35.2 ± 8.17
same,"Damage Taken, Mean ± SD","[3]; 3 weeks, 100 min",1619.60 ± 383.27
same,"Falls (Deaths), Mean ± SD","[3]; 3 weeks, 100 min",11.4 ± 4.04
same,"Hit Percentage, Mean ± SD","[3]; 3 weeks, 100 min",29.4 ± 8.08
same,"Damage Taken, Mean ± SD","[3]; 3 weeks, 120 min",2006.60 ± 376.34
same,"Falls (Deaths), Mean ± SD","[3]; 3 weeks, 120 min",13 ± 3.74
same,"Hit Percentage, Mean ± SD","[3]; 3 weeks, 120 min",26.4 ± 3.51
same,"Damage Taken, Mean of visit",[3]; 3 weeks,"1,323.0"
same,"Falls (Deaths), Mean of visit",[3]; 3 weeks,9.0
same,"Hit Percentage, Mean of visit",[3]; 3 weeks,33.8
same,"Damage Taken, Mean ± SD","[3]; 6 weeks, 20 min",723.62 ± 457.07
same,"Falls (Deaths), Mean ± SD","[3]; 6 weeks, 20 min",5.2 ± 1.92
same,"Hit Percentage, Mean ± SD","[3]; 6 weeks, 20 min",28.09 ± 16.43
same,"Damage Taken, Mean ± SD","[3]; 6 weeks, 40 min",1077.40 ± 258.42
same,"Falls (Deaths), Mean ± SD","[3]; 6 weeks, 40 min",8 ± 2.74
same,"Hit Percentage, Mean ± SD","[3]; 6 weeks, 40 min",42.2 ± 12.46
same,"Damage Taken, Mean ± SD","[3]; 6 weeks, 60 min",1182.80 ± 317.56
same,"Falls (Deaths), Mean ± SD","[3]; 6 weeks, 60 min",7.4 ± 2.7
same,"Hit Percentage, Mean ± SD","[3]; 6 weeks, 60 min",39.4 ± 6.88
same,"Damage Taken, Mean ± SD","[3]; 6 weeks, 80 min",1425.80 ± 173.33
same,"Falls (Deaths), Mean ± SD","[3]; 6 weeks, 80 min",10 ± 2.55
same,"Hit Percentage, Mean ± SD","[3]; 6 weeks, 80 min",33 ± 5.43
same,"Damage Taken, Mean ± SD","[3]; 6 weeks, 100 min",1697.60 ± 336.71
same,"Falls (Deaths), Mean ± SD","[3]; 6 weeks, 100 min",13.2 ± 2.59
same,"Hit Percentage, Mean ± SD","[3]; 6 weeks, 100 min",30.4 ± 4.98
same,"Damage Taken, Mean ± SD","[3]; 6 weeks, 120 min",1921.80 ± 379.30
same,"Falls (Deaths), Mean ± SD","[3]; 6 weeks, 120 min",14.2 ± 3.56
same,"Hit Percentage, Mean ± SD","[3]; 6 weeks, 120 min",27.2 ± 4.15
same,"Damage Taken, Mean of visit",[3]; 6 weeks,"1,338.2"
same,"Falls (Deaths), Mean of visit",[3]; 6 weeks,9.7
same,"Hit Percentage, Mean of visit",[3]; 6 weeks,33.4
same,"Damage Taken, Mean ± SD","[3]; Baseline visit, 20 min",981.20 ± 457.06
same,"Falls (Deaths), Mean ± SD","[3]; Baseline visit, 20 min",7 ± 3.54
same,"Hit Percentage, Mean ± SD","[3]; Baseline visit, 20 min",36.6 ± 11.13
same,"Damage Taken, Mean ± SD","[3]; Baseline visit, 40 min",1306.75 ± 553.65
same,"Falls (Deaths), Mean ± SD","[3]; Baseline visit, 40 min",10.5 ± 5.26
same,"Hit Percentage, Mean ± SD","[3]; Baseline visit, 40 min",30.25 ± 11.15
same,"Damage Taken, Mean ± SD","[3]; Baseline visit, 60 min",1207.60 ± 425.74
same,"Falls (Deaths), Mean ± SD","[3]; Baseline visit, 60 min",8 ± 3.39
same,"Hit Percentage, Mean ± SD","[3]; Baseline visit, 60 min",34.6 ± 9.92
same,"Damage Taken, Mean ± SD","[3]; Baseline visit, 80 min",1527.80 ± 541.49
same,"Falls (Deaths), Mean ± SD","[3]; Baseline visit, 80 min",10.8 ± 4.97
same,"Hit Percentage, Mean ± SD","[3]; Baseline visit, 80 min",34.2 ± 8.23
same,"Damage Taken, Mean ± SD","[3]; Baseline visit, 100 min",1647.20 ± 359.67
same,"Falls (Deaths), Mean ± SD","[3]; Baseline visit, 100 min",11 ± 3.08
same,"Hit Percentage, Mean ± SD","[3]; Baseline visit, 100 min",30.6 ± 5.98
same,"Damage Taken, Mean ± SD","[3]; Baseline visit, 120 min",2067.80 ± 803.18
same,"Falls (Deaths), Mean ± SD","[3]; Baseline visit, 120 min",16.6 ± 8.59
same,"Hit Percentage, Mean ± SD","[3]; Baseline visit, 120 min",24.4 ± 4.28
same,"Damage Taken, Mean of visit",[3]; Baseline visit,"1,460.9"
same,"Falls (Deaths), Mean of visit",[3]; Baseline visit,10.65
same,"Hit Percentage, Mean of visit",[3]; Baseline visit,31.7
same,"Damage Taken, Δ Baseline",[3]; 3 weeks,−9.4%
same,"Falls (Deaths), Δ Baseline",[3]; 3 weeks,−15.5%
same,"Damage Taken, Δ PLA",[3]; 3 weeks,−9.5%
same,"Falls (Deaths), Δ PLA",[3]; 3 weeks,−21.7%
same,"Damage Taken, Δ Baseline",[3]; 6 weeks,−8.4%
same,"Falls (Deaths), Δ Baseline",[3]; 6 weeks,−8.9%
same,"Damage Taken, Δ PLA",[3]; 6 weeks,−14.0%
same,"Falls (Deaths), Δ PLA",[3]; 6 weeks,−15.6%
same,reduction of own damage taken compared to baseline (prior to supplementation),[3]; after 3 weeks,9.4%
same,reduction of own damage taken compared to placebo,[3]; after 3 weeks,9.5%
same,reduction of own deaths compared to baseline (prior to supplementation),[3]; after 3 weeks,15.5%
same,reduction of own deaths compared to placebo,[3]; after 3 weeks,21.7%
same,"improvement over placebo, damage taken, later stages of gaming",[3]; [4],30.9%
same,"improvement over placebo, number of deaths, later stages of gaming",[3]; [4],34%

# Source: patent publication US20220331327A1, “THE USE OF PARAXANTHINE TO IMPROVE PERFORMANCE IN VIDEO GAMERS” (priority 2021, published 2022)
